Laboratory results as given in ChEMBL document CHEMBL1201862, “PubChem BioAssay data set” (2004).
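Results reflect a 48-hour exposure of cells in 96-well plates to compound at five concentrations. GI50 marks 50% less growth.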 Active and inactive are the calls of the source. Cut-off read from the data, not from the text of the source: active = GI50 up to about 1.1 µM and inactive = higher.

Key:
Assay in all cases: NCI-60 cell line screen, 48 h
SW-620 = tested on: SW-620
A498 = tested on: A498
HT-29 = tested on: HT-29
UO-31 = tested on: UO-31
MOLT-4 = tested on: MOLT-4
HOP-62 = tested on: HOP-62
U-251 = tested on: U-251
OVCAR-3 = tested on: OVCAR-3
K562 = tested on: K562
786-0 = tested on: 786-0
OVCAR-4 = tested on: OVCAR-4
OVCAR-5 = tested on: OVCAR-5
HCT-116 = tested on: HCT-116
SR = tested on: SR

Measured: GI50

COC(=O)C1CC(C(=O)OC)c2nc3cc(C)c(C)cc3nc21 (centres undefined)
inactive: SW-620 > 100 µM | A498 > 100 µM | HT-29 > 100 µM | UO-31 > 100 µM | MOLT-4 > 100 µM | HOP-62 > 100 µM | U-251 > 100 µM | OVCAR-3 > 100 µM | K562 > 100 µM | 786-0 > 100 µM | OVCAR-4 > 100 µM | OVCAR-5 > 100 µM

CCOc1ccccc1/N=N/c1ccc2oc(=O)c(C(C)=O)cc2c1
inactive: SW-620 > 100 µM | A498 > 100 µM | HT-29 > 100 µM | UO-31 > 100 µM | MOLT-4 > 100 µM | HOP-62 > 100 µM | HCT-116 > 100 µM | U-251 43.7 µM | OVCAR-3 > 100 µM | K562 > 100 µM | 786-0 54.6 µM | OVCAR-4 > 100 µM | OVCAR-5 > 100 µM

O=[N+]([O-])c1cc(-c2nnc(S)[nH]2)ccc1O
inactive: SW-620 4.06 µM | A498 > 100 µM | HT-29 > 100 µM | UO-31 > 100 µM | HOP-62 > 100 µM | HCT-116 > 100 µM | U-251 > 100 µM | K562 > 100 µM | 786-0 > 100 µM | OVCAR-4 > 100 µM | OVCAR-5 > 100 µM

C[N+](C)(C)CC1CCCC/C1=N\O (centres undefined)
inactive: SW-620 > 100 µM | A498 > 100 µM | HT-29 > 100 µM | UO-31 > 100 µM | MOLT-4 > 100 µM | HOP-62 > 100 µM | HCT-116 > 100 µM | U-251 > 100 µM | OVCAR-3 > 100 µM | K562 > 100 µM | 786-0 > 100 µM | OVCAR-4 > 100 µM | OVCAR-5 > 100 µM

CC(C)C1CNC2N1C(=O)C2(C)OCc1ccccc1 (centres undefined)
inactive: SW-620 > 100 µM | A498 > 100 µM | SR 78.5 µM | HT-29 > 100 µM | UO-31 81.5 µM | MOLT-4 80.5 µM | HOP-62 > 100 µM | HCT-116 > 100 µM | U-251 > 100 µM | OVCAR-3 > 100 µM | K562 > 100 µM | 786-0 > 100 µM | OVCAR-4 > 100 µM

O=C(O)C1OC(Oc2cc(O)c3c(=O)cc(-c4ccc(O)cc4)oc3c2)C(O)C(O)C1O (centres undefined)
inactive: SW-620 > 100 µM | HT-29 > 100 µM | UO-31 > 100 µM | HOP-62 > 100 µM | HCT-116 > 100 µM | U-251 > 100 µM | OVCAR-3 > 100 µM | 786-0 77.3 µM | OVCAR-4 > 100 µM | OVCAR-5 > 100 µM

O=C1C2=C(c3ccccc31)C(c1ccc([N+](=O)[O-])cc1)NC(S)=N2 (centres undefined)
inactive: SW-620 81.1 µM | A498 > 100 µM | HT-29 > 100 µM | UO-31 31.8 µM | MOLT-4 35.4 µM | HOP-62 > 100 µM | HCT-116 38.5 µM | U-251 > 100 µM | OVCAR-3 49.9 µM | K562 49.1 µM | 786-0 > 100 µM | OVCAR-4 42.6 µM | OVCAR-5 > 100 µM

COC(=O)C1=CCON(c2ccccc2)C1c1ccccc1 (centres undefined)
inactive: SW-620 70.5 µM | SR 31.3 µM | HT-29 40.4 µM | UO-31 36.1 µM | MOLT-4 27 µM | HOP-62 > 100 µM | U-251 40.3 µM | OVCAR-3 > 100 µM | K562 40.4 µM | 786-0 > 100 µM | OVCAR-4 > 10 µM | OVCAR-5 94.2 µM

O=c1cc(-c2ccccc2)[nH]c2cc(Cl)cc(Cl)c12
inactive: SW-620 > 100 µM | SR 3.16 µM | HT-29 > 100 µM | UO-31 84.7 µM | MOLT-4 > 100 µM | HOP-62 25.8 µM | HCT-116 31.6 µM | U-251 31.1 µM | K562 7.31 µM | 786-0 22 µM | OVCAR-4 20.5 µM | OVCAR-5 > 100 µM

O=C1C2=C(c3ccccc31)C(c1ccccc1)NC(S)=N2 (centres undefined)
inactive: SW-620 31 µM | A498 > 100 µM | HT-29 57.5 µM | UO-31 > 100 µM | MOLT-4 31.4 µM | HOP-62 > 100 µM | HCT-116 29 µM | U-251 50.1 µM | OVCAR-3 31.6 µM | K562 22.3 µM | 786-0 27.4 µM | OVCAR-4 26.1 µM | OVCAR-5 > 100 µM

COc1ccc2nc(-c3cccs3)cc(C(O)CN3CCSCC3)c2c1 (centres undefined)
inactive: SW-620 30.7 µM | HT-29 25 µM | UO-31 18.7 µM | MOLT-4 12.2 µM | HOP-62 24.2 µM | U-251 19.2 µM | OVCAR-3 36.8 µM | K562 12.9 µM | 786-0 16.8 µM | OVCAR-4 8.3 µM | OVCAR-5 19.2 µM

N#CNc1nc(C(=O)Nc2ccc(Cl)cc2)cc(-c2ccccc2)n1
inactive: SW-620 > 100 µM | A498 > 100 µM | HT-29 > 100 µM | UO-31 > 100 µM | MOLT-4 > 100 µM | HOP-62 > 100 µM | HCT-116 > 100 µM | U-251 > 100 µM | OVCAR-3 > 100 µM | K562 > 100 µM | 786-0 > 100 µM | OVCAR-4 > 100 µM | OVCAR-5 > 100 µM

Cc1cc(Cl)ccc1NC1=NC(=O)C(CC(=O)Nc2ccc(Cl)cc2Cl)S1 (centres undefined)
inactive: SW-620 > 100 µM | HT-29 > 100 µM | UO-31 > 100 µM | MOLT-4 > 100 µM | HOP-62 > 100 µM | U-251 > 100 µM | OVCAR-3 > 100 µM | K562 > 100 µM | 786-0 > 100 µM | OVCAR-4 > 100 µM | OVCAR-5 > 100 µM

COc1cc2nc(-c3cccc(N(C)C)c3)cc(O)c2cc1OC
inactive: SW-620 4.09 µM | A498 6.03 µM | SR 5.14 µM | HT-29 3.2 µM | UO-31 5.65 µM | MOLT-4 5.19 µM | HOP-62 3.02 µM | HCT-116 4.8 µM | OVCAR-3 1.52 µM | K562 3.62 µM | 786-0 3.57 µM | OVCAR-4 > 100 µM | OVCAR-5 5.18 µM

Nc1ccc2c(c1)C(=O)N(OS(=O)(=O)c1ccccc1)C2=O
inactive: SW-620 49.8 µM | A498 > 100 µM | HT-29 > 100 µM | UO-31 > 100 µM | HOP-62 > 100 µM | HCT-116 > 100 µM | U-251 > 100 µM | OVCAR-3 > 100 µM | K562 86.1 µM | 786-0 > 100 µM | OVCAR-4 > 100 µM | OVCAR-5 > 100 µM

Nc1ccc(O)c2c1C(=O)c1c(N)ccc(O)c1C2=O
inactive: SW-620 > 100 µM | A498 > 100 µM | UO-31 > 100 µM | MOLT-4 > 100 µM | HOP-62 > 100 µM | HCT-116 > 100 µM | U-251 > 100 µM | OVCAR-3 > 100 µM | K562 > 100 µM | 786-0 > 100 µM | OVCAR-4 > 100 µM | OVCAR-5 > 100 µM
